Assay: Solubility in organic solvent, checked visually at room temperature
Assay type: physicochemical
Settings: room temperature (25±5° C.), stirred 3 to 5 minutes, visual check, % (w/w)

Solubility in THF (10 g tetrahydrofuran): 49.9%
Solubility in toluene (10 g toluene): 24.2%
SMILES: Cc1ccc(N(c2ccccc2)c2ccc(-c3ccc(N(c4ccccc4)c4ccc(C)cc4)cc3)cc2)cc1 [A-1, 4,4′-bis(4-methyldiphenylamino)-p-diphenyl]
